In PMC8238916 (Nature chemical biology, 2021):

T1: RING1B RING domain (residues 10-116) as it stands in RING1B-BMI1f (UniProt Q99496 10-116)
T1 sequence: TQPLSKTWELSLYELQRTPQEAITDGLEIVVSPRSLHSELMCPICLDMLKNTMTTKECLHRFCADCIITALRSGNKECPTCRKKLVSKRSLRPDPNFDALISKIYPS


Experiments:
TEX cells [1] = assay: Gene expression; format: cell-based, human; conditions: 96 hours
TEX cells [2] = assay: Western blot in TEX cells; format: cell-based, human; conditions: 4 days
TEX cells [3] = assay: Cell viability assay; format: cell-based, human
[4] = target: T1, RING1B RING domain (residues 10-116) as …; assay: crystal structure

Row | binding result [4] | Molecule | C/EBPα and CD34 expression (TEX cells [1]) | H2Aub, BMI1 and H2A levels (TEX cells [2]) | cytotoxicity compared with RB-3 (TEX cells [3])
1 |  | COc1cc(Br)c(Nc2nc(-c3c(C)nc4ncccn34)cs2)c(Br)c1 [PTC209] | had no effect on C/EBPα and CD34 expression | decreased H2Aub, reduced BMI1 level and, unexpectedly, reduced H2A levels | more cytotoxic to TEX cells than RB-3
2 | binds | BMI1 RING domain (residues 1-104) as it stands in RING1B-BMI1f (domain or fragment) MHRTTRIKITELNPHLMCVLCGGYFIDATTIIECLHSFCKTCIVRYLETSKYCPICDVQVHKTRPLLNIRSDKTLQDIVYKLVPGLFKNEMKRRRDFYAAHPSA |  |  | 
